We go through four molecules from publication PMC3371050, “Characterisation of a Novel White Laccase from the Deuteromycete Fungus Myrothecium verrucaria NF-05 and Its Decolourisation of Dyes” (PLoS ONE, 2012).

By Km is commonly meant the concentration of substrate that gives half-maximal velocity.

Molecules are shown by their SMILES. Like-named read-outs stand apart in the source and are kept apart here.

Common to all, as to settings: 0.2 M citric acid pH 4.0, 30°C
The subject of experiment [1] is white laccase from Myrothecium verrucaria NF-05.
Experiment [2] deals with T1, white laccase from Myrothecium verrucaria NF-05.
T1 construct: native extracellular enzyme purified from culture medium; about 66 kDa monomer; 3 Cu and 1 Fe per molecule; no bilirubin oxidase activity detected in the fermentation liquid
The experiment can be described thus: oxidation at […] nm, Lineweaver-Burk. The experiment is classed as biochemical, Albifimbria verrucaria.

Experiment [3] has the same test system. As to the kind of experiment: oxidation at […] nm, Lineweaver-Burk. It counts as biochemical, Albifimbria verrucaria. The source holds these as a separate data set.
The test system of experiment [4] is white laccase from Myrothecium verrucaria NF-05. The source holds these as a separate data set.

As for `CCn1c(=NN=c2sc3cc(S(=O)(=O)O)ccc3n2CC)sc2cc(S(=O)(=O)O)ccc21` [ABTS, 2,2′-azinobis-(3-ethylbenzothiazoline-6-sulphonic acid)], in experiment [1], the Km came out at 85.9 µM.

Turning to `Oc1ccccc1O` [catechol], in experiment [2], the Km turned out to be 329 µM. Consider `COc1ccccc1O` [guaiacol], for which, in experiment [3], the Michaelis constant (Km) stood at 312 µM. Regarding `Oc1ccc(O)cc1` [hydroquinone], the Michaelis-Menten constant (Km) in experiment [4] is 2090 µM.
